In patent US3950525A, “Relaxation of smooth muscle in a mammal” (Pfizer Inc., priority 1975, dated 1976):
Where a name gives a salt, the structure may show the parent alone. Read-outs that look alike come from different tables or passages of the source.

What was measured:
[1] = system: collagen induced platelet aggregation; test: In Vitro Inhibition of Platelet Aggregation (collagen induced, rabbit platelet-rich plasma); type: cell-based; details: Oryctolagus cuniculus, 10 min; for inhibition at 600 µM: 6 × 10^^-4 mol./l.; for inhibition at 60 µM: 6 × 10^^-5 mol./l.; for inhibition at 6 µM: 6 × 10^^-6 mol./l.
Method: The ability of the compounds of the present invention to inhibit platelet aggregation in vitro is measured according to the method of Born, et al., J. Physiol., 168, 178 (1963) and comprises the following procedure: Anesthetized male rabbits are bled from a carotid artery into plastic centrifuge tubes containing 0.1 volume 3% sodium citrate. Platelet-rich plasma is separated by centrifugation at 100 G for 10 minutes at 20° C. […] After 10 minutes of incubation with the platelet-rich plasma at room temperature, collagen, a protein known to cause platelet aggregation, is added (0.27 ml. collagen/4 ml. plasma) and changes in the optical density are followed with a Spectronic 20 colorimeter attached to a Houston Instrument TY Recorder. Platelet aggregation is indicated by a decrease in optical density. The relative potency of the compounds of the present invention are thus rated on their ability to inhibit (percent) collagen induced platelet aggregation.

[2] = system: histamine aerosol induced bronchoconstriction; test: Bronchodilator Activity (protection of conscious guinea pigs against histamine aerosol); type: in vivo; details: Cavia porcellus, 1 h, read-out: % Protection
Method: Subsequent to this administration, each animal is challenged with histamine aerosol. […] Immediately after the container is subjected to the histamine spray the animal is placed within it. At the end of one minute of exposure, the respiratory status, which is a reflection of bronchoconstriction, is evaluated. Evaluation levels are designated and scored as normal breathing (0), slight deepened breathing (1), labored breathing (2), severely labored breathing and […] (3) and unconsciousness (4). Each group of animals contains 8 to 10 individual and a control group containing the same approximate number is used. […] The dose, which is given orally, is 60 mg./kg. and the animals are challenged with histamine 60 minutes later.

[3] = system: collagen induced platelet aggregation; test: In Vivo Inhibition of Platelet Aggregation (collagen induced aggregation in plasma of dosed dogs); design: species or system mongrel dogs; details: 25 mg./kg. P.O.
Method: The capacity of the compounds of the present invention to inhibit platelet aggregation in a modified in vivo test is measured by the following procedure: Unanesthetized fasted adult mongrel dogs of either sex are dosed orally (P.O.) or intravenously (I.V.) with the particular test compound. Blood samples are taken at hourly intervals and placed in plastic centrifuge tubes containing 0.1 volume 3% sodium citrate. Platelet-rich plasma is separated by centrifugation at 100 G for 10 minutes at 20° C. and treated with a collagen suspension in saline. The effect of two different levels of collagen concentration are examined; the first is a 1:20 dilution, i.e. 1 ml. of collagen suspension per 20 ml. of platelet-rich plasma (high dose), and the second, a 1:40-50 dilution (low dose). Changes in optical density are then followed with a Spectronic 20 colorimeter attached to a Houston Instrument TY Recorder. Platelet aggregation is indicated by a decrease in optical density. […] Measurements are carried out on the hourly samples, allowing for the determination of a duration of the initial effect.

[4] = system: collagen induced platelet aggregation; test: In vitro Inhibition of Platelet Aggregation in Human Plasma (collagen induced); type: cell-based; details: human platelet-rich plasma
Method: Anesthetized male rabbits are bled from a carotid artery into plastic centrifuge tubes containing 0.1 volume 3% sodium citrate. Platelet-rich plasma is separated by centrifugation at 100 G for 10 minutes at 20° C. Plasma from 3 animals is pooled; 5 ml. samples are placed into clear plastic curvettes and stirred at 1000 rpm, followed by the addition of compounds of the present invention at levels of 6 × 10^^-4 , 10^^-5 and 10^^-6 moles/liter. After 10 minutes of incubation with the platelet-rich plasma at room temperature, collagen, a protein known to cause platelet aggregation, is added (0.27 ml. collagen/4 ml. plasma) and changes in the optical density are followed with a Spectronic 20 colorimeter attached to a Houston Instrument TY Recorder. Platelet aggregation is indicated by a decrease in optical density. The relative potency of the compounds of the present invention are thus rated on their ability to inhibit (percent) collagen induced platelet aggregation.
The procedure of Example XLV is repeated except that platelet-rich plasma from nine human volunteers is employed in place of rabbit plasma. 4-(Diethylamino)-6-phenylpyrimidine hydrochloride provides the following inhibition (%) of collagen induced platelet aggregation at the indicated concentrations: […]

[5] = 60 mg./kg. oral, histamine challenge 60 minutes later

Row | Structure (SMILES) | inhibition at 600 µM [1] | inhibition at 60 µM [1] | inhibition at 6 µM [1] | inhibition in vivo at 60 mg/kg [2, 5] | also measured
1 | CCN(CC)c1cc(-c2cccc(NS(C)(=O)=O)c2)ncn1 | 95% | 21% | 9% | 19% | 
2 | CCCN(CCC)c1cc(-c2cccc(NC(C)=O)c2)ncn1 [4-di-n-propylamino-6-(m-acetylaminophenyl)-pyrimidine] | 88% | 29% | 22% | 30% | 
3 | CCC(=O)Nc1cccc(-c2cc(N(CC)CC)ncn2)c1 [4-diethylamino-6-(m-propionylaminophenyl)pyrimidine] | 99% | 82% | 13% | 30% | 
4 | CCN(CC)c1cc(-c2cccc(NC(C)=O)c2)ncn1 [Ar=3-CH3CONHC6H4; R1=C2H5; R2=C2H5; R3=H, 4-Diethylamino-6-(m-acetylaminopheny)pyrimidine hydrochloride] |  | 16% | 14% | 40% | 
5 | CCN(CC)c1cc(-c2cccc([N+](=O)[O-])c2)ncn1 [Ar=3-NO2C6H4; R1=C2H5; R2=C2H5; R3=H, 4-Diethylamino-6-(m-nitrophenyl)pyrimidine hydrochloride] | 99% | 93% | 25% | 20% | 
6 | CCN(CC)c1cc(-c2ccccc2)ncn1.Cl [Ar=C6H5; R1=C2H5; R2=C2H5; R3=H, 4-Diethylamino-6-phenylpyrimidine hydrochloride] | 99% |  | 99% |  | Duration [3]: 5 h; Inhibition to Collagen, High ([3]; high collagen (1:20 dilution)): Complete (complete (95-100%)); Inhibition to Collagen, Low ([3]; low collagen (1:40-50 dilution)): Complete (complete (95-100%)); Mean % Inhibition ([4]; 6 × 10^^-4 mol./l.): 73%; Mean % Inhibition ([4]; 6 × 10^^-5 mol./l.): 59%; Mean % Inhibition ([4]; 6 × 10^^-6 mol./l.): 52%; Mean % Inhibition ([4]; 6 × 10^^-7 mol./l.): 15%
7 | Cn1c(=O)c2[nH]cnc2n(C)c1=O [theophylline, reference compound] |  |  |  |  | inhibition in vivo at 60 mg/kg ([2]; po): 25%
